Data on 75 compounds can be found in ChEMBL document CHEMBL4304757, “Synthetic heterocyclic candidates as promising α-glucosidase inhibitors: An overview” (Eur J Med Chem, 2019).

pIC50: −log10 of the molar value.

The first experiment addresses T1, Alpha glucosidase (Homo sapiens, UniProt O43451+P10253+P14410+Q2M2H8). Put plainly: Inhibition of alpha-glucosidase (unknown origin) using p-nitrophenyl-alpha-d-glucopyranoside as substrate preincubated for 15 mins followed by substrate addition measured after 30 mins. It is filed as protein assay.
The compound `O=C(CSc1nnc(-c2ccc(F)cc2)c(-c2ccc(F)cc2)n1)Nc1nc(-c2ccc(F)cc2)cs1` showed a pIC50 of 4.85 to 5.55.
`COc1cc(-c2ccc(C)cc2)ccc1O[C@H](C)Cn1cc(-c2ccc(C(F)(F)F)cc2)nn1` showed a pIC50 of 3.66 to 4.85.
The compound `COc1cc(Br)ccc1O[C@H](C)Cn1cc(-c2ccccc2)nn1` had a pIC50 of 3.66 to 4.85.

The target of a further experiment is T1, Alpha glucosidase. Put plainly: Inhibition of alpha-glucosidase (unknown origin). In kind it is protein assay.
As for `COc1ccc(Cc2nnc(-c3ccc(Cl)cc3)n2CC(=O)NNC(=S)Nc2ccc(Cl)cc2)cc1`, the 50% inhibitory concentration (IC50) amounted to 3.4 µM.
With `Cc1cccc([C@H](CC(=O)c2ccccc2)c2c[nH]c3ccccc23)c1`, the pIC50 was 4.37 to 5.37.
In turn, `O=C(Cn1cc(Cn2c(-c3ccc(F)cc3)nc(-c3ccccc3)c2-c2ccccc2)nn1)Nc1ccc(Cl)cc1Cl` showed a pIC50 of 4.32 to 4.82.
`N#Cc1ccc2[nH]cc(C(c3ccc(-c4nnc(-c5c[nH]c6ccccc56)o4)cc3)c3c[nH]c4ccc(C#N)cc34)c2c1` had a pIC50 of 3.53 to 4.70.
Regarding `CCOC(=O)CC(=O)OCC` [MALONIC ACID DIETHYL ESTER], the pIC50 is 4.80 to 5.30.
Compound `Cn1cc(C(c2ccc(-c3nnc(-c4c[nH]c5ccccc45)o3)cc2)c2cn(C)c3ccccc23)c2ccccc21` had a pIC50 of 3.53 to 4.70.
For the compound `Cn1cc(-c2nnc(-c3ccc(C(c4c[nH]c5ccc(Br)cc45)c4c[nH]c5ccc(Br)cc45)cc3)o2)c2ccccc21`, the pIC50 was 3.53 to 4.70.
In turn, `Cc1c(C(c2ccc(-c3nnc(-c4c[nH]c5ccccc45)o3)cc2)c2c(C)n(C)c3ccccc23)c2ccccc2n1C` showed a pIC50 of 3.53 to 4.70.
With `COc1ccccc1-c1nc(-c2ccccc2)c(-c2ccccc2)n1Cc1cn(CC(=O)Nc2ccc(C)cc2)nn1`, the pIC50 is 4.32 to 4.82.
On the same count and under the same terms, to `Cn1cc(-c2nnc(-c3ccc(C(c4c[nH]c5ccccc45)c4c[nH]c5ccccc45)cc3)o2)c2ccccc21` belongs 3.53 to 4.70; to `COc1ccc([C@H](CC(=O)c2ccc3ccccc3c2)c2c[nH]c3ccccc23)cc1`, 4.37 to 5.37.
Still for that read-out and setting: the result for `COc1ccc([C@H](CC(=O)c2ccccc2)c2c[nH]c3ccccc23)cc1` reads 4.37 to 5.37; that for `CCOc1ccc(NC(=O)Cn2cc(Cn3c(-c4ccc(C(=O)OC)cc4)nc(-c4ccccc4)c3-c3ccccc3)nn2)cc1`, 4.32 to 4.82.
In turn, `CCn1c2ccccc2c2cc(NC(=O)CSc3nc4ccccc4[nH]3)ccc21` came in with an IC50 of 0.17 µM.
The compound `Cc1[nH]c2ccccc2c1-c1nnc(-c2ccc(C(c3c(-c4ccccc4)[nH]c4ccccc34)c3c(-c4ccccc4)[nH]c4ccccc34)cc2)o1` had a pIC50 of 3.53 to 4.70.
`Cc1ccccc1NC(=O)Cn1cc(Cn2c(-c3cccc(F)c3)nc(-c3ccccc3)c2-c2ccccc2)nn1` gave a pIC50 of 4.32 to 4.82.
Turning to `Cc1ccc([C@H](CC(=O)c2ccc3ccccc3c2)c2c[nH]c3ccccc23)cc1`, the pIC50 was 4.37 to 5.37.
The compound `O=C(Cc1ccc(Cl)cc1Cl)N/N=C1\C(=O)Nc2cc(Br)ccc21` had a 50% inhibitory concentration (IC50) of 2.2 µM.
`Cn1cc(-c2nnc(-c3ccc(C(c4c[nH]c5ccccc45)c4c[nH]c5ccc(Cl)cc45)cc3)o2)c2ccccc21` (stereo unspecified) yielded an IC50 of 2 µM.
The compound `c1ccc2c(-c3nnc(-c4ccc(C(c5c[nH]c6ccccc56)c5c[nH]c6ccccc56)cc4)o3)c[nH]c2c1` showed a pIC50 of 3.53 to 4.70.
For the compound `O=C(Cn1cc(Cn2c(-c3ccc(Br)cc3)nc(-c3ccccc3)c2-c2ccccc2)nn1)Nc1ccc(F)cc1`, the pIC50 is 4.32 to 4.82.
Regarding `Cc1ccc(NC(=O)Cn2cc(Cn3c(-c4cccc(Cl)c4)nc(-c4ccccc4)c3-c3ccccc3)nn2)c(C)c1`, the pIC50 is 4.32 to 4.82.
Compound `Cc1c(C(c2ccc(-c3nnc(-c4cn(C)c5ccccc45)o3)cc2)c2c(C)n(C)c3ccccc23)c2ccccc2n1C` had a pIC50 of 3.53 to 4.70.
Take `O=C1NC(=O)/C(=C/c2ccc(-c3nc4ccccc4n3Cc3ccc(Cl)cc3)cc2)S1`: the IC50 stood at 0.54 µM.
With `O=C(C[C@@H](c1ccccc1)c1c[nH]c2ccccc12)c1ccc2ccccc2c1`, the pIC50 was 4.37 to 5.37.
Consider `CCOc1ccccc1NC(=O)Cn1cc(Cn2c(-c3ccccc3F)nc(-c3ccccc3)c2-c2ccccc2)nn1`, for which the pIC50 was 4.32 to 4.82.
Still for that read-out and setting: the result for `Cn1cc(-c2nnc(-c3ccc(C(c4c(-c5ccccc5)[nH]c5ccccc45)c4c(-c5ccccc5)[nH]c5ccccc45)cc3)o2)c2ccccc21` reads 3.53 to 4.70; that for `O=C(C[C@@H](c1cccc([N+](=O)[O-])c1)c1c[nH]c2ccccc12)c1ccccc1`, 4.37 to 5.37.
For the compound `Cc1ccc(C(=O)N/N=C2\C(=O)Nc3ccc(Cl)cc32)cc1`, the pIC50 is 4.08 to 5.66.
For `COC(=O)CC(C)=O`, the pIC50 was 4.60 to 4.72.
`Cc1ccc(NC(=O)Cn2cc(Cn3c(-c4cccc(F)c4)nc(-c4ccccc4)c3-c3ccccc3)nn2)c(C)c1` had a pIC50 of 4.32 to 4.82.
As to `O=C1Nc2cc(Cl)ccc2/C1=C/c1ccc(-c2nnc(-c3cc(O)cc(O)c3)o2)cc1`, the IC50 was 1.2 µM. This lies in the single-digit micromolar range.
The compound `Cc1[nH]c2ccccc2c1-c1nnc(-c2ccc(C(c3cn(C)c4ccccc34)c3cn(C)c4ccccc34)cc2)o1` had a pIC50 of 3.53 to 4.70.
The compound `Cn1cc(-c2nnc(-c3ccc(C(c4c[nH]c5ccc(Cl)cc45)c4c[nH]c5ccc(Cl)cc45)cc3)o2)c2ccccc21` had a pIC50 of 3.53 to 4.70.
Compound `CCOc1ccc(NC(=O)Cn2cc(Cn3c(-c4cccc(Cl)c4)nc(-c4ccccc4)c3-c3ccccc3)nn2)cc1` had a pIC50 of 4.32 to 4.82.
Compound `O=C1Nc2cc(Br)ccc2/C1=N/NC(=O)c1ccccc1O` gave a pIC50 of 4.08 to 5.66.
Still for that read-out and setting: the result for `O=C1CSC(=O)N1` [THIAZOLIDINEDIONE] reads 5.66 to 6.27; that for `Cn1cc(-c2nnc(-c3ccc(C(c4c[nH]c5ccc(C#N)cc45)c4c[nH]c5ccc(C#N)cc45)cc3)o2)c2ccccc21`, 3.53 to 4.70; that for `Cc1[nH]c2ccccc2c1-c1nnc(-c2ccc(C(c3c[nH]c4ccccc34)c3c[nH]c4ccccc34)cc2)o1`, 3.53 to 4.70.
The same measure, in the same setting: to `COc1ccc(NC(=O)Cn2cc(Cn3c(-c4cccc(Cl)c4)nc(-c4ccccc4)c3-c3ccccc3)nn2)cc1` belongs 4.32 to 4.82; to `Cn1cc(-c2nnc(-c3ccc(C(c4cn(C)c5ccccc45)c4cn(C)c5ccccc45)cc3)o2)c2ccccc21`, 3.53 to 4.70.
Turning to `COc1ccc(-c2nc(-c3ccccc3)c(-c3ccccc3)n2Cc2cn(CC(=O)Nc3ccc(Cl)cc3Cl)nn2)cc1OC`, the pIC50 is 4.32 to 4.82.
In turn, `O=C(C[C@@H](c1cccs1)c1c[nH]c2ccccc12)c1ccc2ccccc2c1` showed a pIC50 of 4.37 to 5.37.
On to `CCCN1C(=O)/C(=N\NC(=O)Cc2ccc(Cl)cc2Cl)c2ccccc21`, for which the pIC50 is 4.08 to 5.66.
As to `O=C(C[C@@H](c1ccc(Br)cc1)c1c[nH]c2ccccc12)c1ccccc1`, the pIC50 is 4.37 to 5.37.
With `Cc1[nH]c2ccccc2c1-c1nnc(-c2ccc(C(c3c(C)n(C)c4ccccc34)c3c(C)n(C)c4ccccc34)cc2)o1`, the pIC50 is 3.53 to 4.70.
In turn, `CCCCCCCCCCCC(=O)N/N=C1\C(=O)Nc2ccccc21` gave a pIC50 of 4.08 to 5.66.
`O=C(C[C@@H](c1ccc(Cl)cc1)c1c[nH]c2ccccc12)c1ccc2ccccc2c1` had a negative-log IC50 (pIC50) of 4.37 to 5.37.
`O=C(C[C@@H](c1cccs1)c1c[nH]c2ccccc12)c1ccccc1`: the pIC50 is 4.37 to 5.37.
As to `COc1ccc(Cc2nnc(-c3ccc(Cl)cc3)n2Cc2nn(CN3CCN(C)CC3)c(=S)o2)cc1`, the IC50 came to 4.3 µM. That is a single-digit micromolar value.
`O=C(C[C@@H](c1ccc(Cl)cc1)c1c[nH]c2ccccc12)c1ccccc1` showed a pIC50 of 4.37 to 5.37.
`O=C(C[C@@H](c1c(Cl)cccc1Cl)c1c[nH]c2ccccc12)c1ccccc1` came in with an IC50 of 4.3 µM.
In turn, `O=C(C[C@@H](c1ccccc1)c1c[nH]c2ccccc12)c1ccccc1` showed a pIC50 of 4.37 to 5.37.
Regarding `c1ccc(-c2[nH]c3ccccc3c2C(c2ccc(-c3nnc(-c4c[nH]c5ccccc45)o3)cc2)c2c(-c3ccccc3)[nH]c3ccccc23)cc1`, the pIC50 was 3.53 to 4.70.
Take `O=C(Cc1ccc(Cl)c(Cl)c1)N/N=C1\C(=O)Nc2cc(Br)ccc21`: the pIC50 is 4.08 to 5.66.
Still for that read-out and setting: to `Cc1[nH]c2ccccc2c1-c1nnc(-c2ccc(C(c3c[nH]c4ccc(Br)cc34)c3c[nH]c4ccc(Br)cc34)cc2)o1` belongs 3.53 to 4.70.
Consider `O=C(C[C@@H](c1cccc(Br)c1)c1c[nH]c2ccccc12)c1ccccc1`, for which the pIC50 was 4.37 to 5.37.
Consider `COc1ccc(NC(=O)Cn2cc(Cn3c(-c4cccs4)nc(-c4ccccc4)c3-c3ccccc3)nn2)cc1`, for which the pIC50 was 4.32 to 4.82.
Regarding `Clc1ccc2[nH]cc(C(c3ccc(-c4nnc(-c5c[nH]c6ccccc56)o4)cc3)c3c[nH]c4ccc(Cl)cc34)c2c1`, the pIC50 is 3.53 to 4.70.
In the case of `Cc1[nH]c2ccccc2c1-c1nnc(-c2ccc(C(c3c[nH]c4ccc(C#N)cc34)c3c[nH]c4ccc(C#N)cc34)cc2)o1`, the pIC50 is 3.53 to 4.70.
Compound `Cc1[nH]c2ccccc2c1-c1nnc(-c2ccc(C(c3c[nH]c4ccc(Cl)cc34)c3c[nH]c4ccc(Cl)cc34)cc2)o1` gave a pIC50 of 3.53 to 4.70.
On to `CCOc1ccccc1NC(=O)Cn1cc(Cn2c(-c3cccc(Br)c3)nc(-c3ccccc3)c2-c2ccccc2)nn1`, for which the IC50 stood at 15 µM and the Ki was 14 µM.
`COC(=O)c1ccc(-c2nc(-c3ccccc3)c(-c3ccccc3)n2Cc2cn(CC(=O)Nc3cc(Cl)ccc3Cl)nn2)cc1` had a pIC50 of 4.32 to 4.82.
Take `Cc1ccc([C@H](CC(=O)c2ccccc2)c2c[nH]c3ccccc23)cc1`: the pIC50 was 4.37 to 5.37.
For `Cc1ccccc1NC(=O)Cn1cc(Cn2c(-c3ccc(Br)cc3)nc(-c3ccccc3)c2-c2ccccc2)nn1`, the pIC50 was 4.32 to 4.82.
Turning to `O=C(C[C@@H](c1ccc(Cl)cc1Cl)c1c[nH]c2ccccc12)c1ccccc1`, the pIC50 was 4.37 to 5.37.

Target in another experiment: not listed separately
Kind of experiment: Inhibition of yeast alpha-glucosidase using p-nitrophenyl-alpha-d-glucopyranoside as substrate preincubated for 10 mins followed by substrate addition measured after 30 mins. The arrangement: species or system Saccharomyces cerevisiae.
Consider `Cc1cccc(/C=N/NC(=O)c2ccc(-c3nc4cc(C)c(C)cc4[nH]3)cc2)c1`, for which the pIC50 is 3.75 to 5.08.
Regarding `Cc1cc2nc(-c3ccc(C(=O)NNC(=S)Nc4cccc(F)c4)cc3)[nH]c2cc1C`, the pIC50 was 3.53 to 4.46.
`O=c1oc2ccccc2cc1-c1nn(-c2ccccc2)cc1-c1nc(-c2ccccc2)c(-c2ccccc2)n1-c1ccc(Cl)cc1` had a pIC50 of 4.34 to 5.60.
Same read-out and setting: to `Cc1cc2nc(-c3ccc(C(=O)N/N=C/c4cc(O)ccc4O)cc3)[nH]c2cc1C` belongs 5.00 to 5.08.
Still for that read-out and setting: to `COc1ccc(/C=N/NC(=O)c2ccc(-c3nc4cc(C)c(C)cc4[nH]3)cc2)c(O)c1` belongs 5.00 to 5.08.
Same read-out and setting: the result for `Cc1cc2nc(-c3ccc(C(=O)NNC(=S)Nc4cccc([N+](=O)[O-])c4)cc3)[nH]c2cc1C` reads 3.53 to 4.46.
